The conditions of the data set: 1825 kPa, Liquid, Pendant drop shape.

± gives the expanded uncertainty stated by the source.

Consider `Cc1ccccc1` [toluene] + O, for which the interfacial tension (383 K) came to 28.6 ± 0.1 mN/m, the interfacial tension (403 K) is 26.4 ± 0.1 mN/m, the interfacial tension (423 K) is 23.8 ± 0.2 mN/m and the interfacial tension (443 K) is listed as 20.2 ± 0.2 mN/m.
Taken in the same sequence, the figures for `CCCCCCCCCCCC` [dodecane] + O were 40 ± 0.2 mN/m, 36.5 ± 0.2 mN/m, 32.9 ± 0.2 mN/m and 28.5 ± 0.2 mN/m.

The values are drawn from the NIST ThermoML archive (doi:10.1016/j.fluid.2018.07.032).
